Data as given in publication PMC2725291, “Genetic and Molecular Basis of Individual Differences in Human Umami Taste Perception” (PLoS ONE, 2009).

Experiments:
254 Japanese subjects = test: Taste recognition threshold measurement (staircase method); type: in vivo, human; conditions: for mean recognition threshold by Gaussian fit analysis: center±S.E. of gaussian curve
From the text: A total of 254 healthy, non-obese, non-diabetic Japanese volunteers [male/female: 141/113, age: 20–36, body mass index (BMI); 16.5–24.8] participated in this study. The purpose of the study as well as the methods and procedure were explained to the participants and the patients in this manuscript have given written informed consent. All protocols were approved by the local ethics committee at Kyushu University. Subjects were asked to refrain from consuming alcohol the day before testing, caffeine on the day of testing, and food during the experimentation period. The inclusion criteria were satisfactory state of oral hygiene, non-smoking, regular work, sleep, and meal schedules.
As MSG contains sodium, great care was taken to compare individual sensitivities to MSG relative to NaCl. […] The differences in concentrations in the present study were in 0.3 log steps, which mean step-wise increases in concentration by a factor of 2.0. All solutions were made up in distilled water and used at room temperature. The testing procedure was the staircase-method modified from Pasquet et al.. Each subject evaluated all 7 tastants. The seven series of solutions were presented one after another within a single section. Within each series, the solutions with each 2.0 ml were applied to the whole tongue of each subject with a pipet in order of ascending concentrations. The subjects were asked not to swallow test solutions and rinse their mouth between two solutions with distilled water. The subject was requested to correctly name the taste quality in each series. Once the taste of two successive concentrations was recognized successfully, the subject was given the previous unrecognized concentration (first reversal). The points at which concentration sequence changed from a decrease to an increase or vice versa were designated “reversals”. The procedure was terminated after five reversals, and the threshold was calculated as the mean of the concentration values of the last four reversals.
Student's t-test was used for detection of differences in the mean recognition thresholds between males and females. The χ^2 test was used for checking Hardy-Weinberg Equilibrium (HWE) for the genotype frequencies in samples to control genotyping errors, for detection of differences in genotype and allele frequencies between high and low taste recognition threshold groups. Yates'χ^2 test was used when the number was less than 10. The mean values (the center±S.E. of gaussian curve on X-axis) in the distribution of recognition thresholds defined by TAS1R1/TAS1R3 haplotypes (TAS1R1-372A/TAS1R3-757R homozygotes, TAS1R1-372T/TAS1R3-757R homozygotes, homo- and heterozygotes containing TAS1R3-757C) were calculated using gauss fit function of Origin 5.0 (OriginLab Corp). For Ca^2+ imaging analysis, data were normalized to response to 10 µM ISO, and mean values (±S.E.) were calculated from 10∼18 independent analyses. EC50 values were calculated from individual cumulative concentration-response data using sigmoid fit functions of Origin 5.0. One factor ANOVAs were conducted for detection of differences in the distributions of recognition thresholds for umami substances among 3 groups defined by TAS1R1/TAS1R3 haplotypes, and in the responses to 5, 20 and 50 mM MSG or 0.3, 5 and 50 mM M+I among TAS1R1/TAS1R3 variants in Ca^2+ imaging analysis. When the ANOVA was significant, post-hoc Student's t-test or Fisher's PLSD test was performed to compare individual means at each umami compound or concentration. Significance level was 0.05.

[1] = system: Mock-transfected HEK cells; test: Ca2+ imaging in mock-transfected HEK cells; type: cell-based, human; conditions: without the three genes, Gα16-i3 alone, Gα16-i3/TAS1R1 without TAS1R3, Gα16-i3/TAS1R3 without TAS1R1
Procedure: HEK293 cells were cultured at 37°C under a humidified atmosphere containing 5% CO2 in Dulbecco's modified Eagle's medium supplemented with 10% fetal bovine serum. To obtain reproducible Ca^2+ responses, cells were split every 2 days before cells become confluent. Cells were discarded after 2 months of passages and new cells were prepared from frozen-stock. For calcium imaging experiments, cells were seeded onto a 35 mm recording chamber or poly-D-lysine coated 96-well black-wall, clear-bottom recording plates. […] The transfection efficiencies were estimated by visualizing DsRed fluorescence (data not shown) or by immunocytochemistry of TAS1R3, and were typically 50∼55% (Figure S4). […]
Two Ca^2+ imaging systems were used. […] Taste solutions diluted in HBSS were applied sequentially to the cells for 30 s with a peristaltic pump at a flow rate of 1.5 ml/min, and fluorescence images were obtained using a S Fluor ×20/0.75 objective lens (Nikon) via a cooled-CCD camera (C6790, Hamamatsu Photonics) fitted to a TE300 microscope (Nikon). Acquisition and analysis of these fluorescence images used AquaCosmos software (v. 1.3, Hamamatsu Photonics). […] Responses were measured from 30 individual responding cells. […]

## N[C@@H](CCC(=O)O)C(=O)[O-].[Na+] [MSG, monosodium glutamate]
254 Japanese subjects; AR homozygotes (372A/757R)
  mean recognition threshold by Gaussian fit analysis: 7.51 ± 0.44 mM
254 Japanese subjects; AR homozygotes (372A/757R, n = 84)
  mean (±S.E.) recognition threshold: 6.23 ± 0.45 mM
254 Japanese subjects; TR homozygotes (372T/757R)
  mean recognition threshold by Gaussian fit analysis: 4.38 ± 0.29 mM
254 Japanese subjects; TR homozygotes (372T/757R, n = 37)
  mean (±S.E.) recognition threshold: 4.65 ± 0.47 mM
254 Japanese subjects; TR<AR<TAS1R3-757C
  difference of mean recognition thresholds among 3 groups divided by TAS1R1-A372T and TAS1R3-R757C haplotypes: 2∼3 fold
254 Japanese subjects; all subjects (254 Japanese, both genders)
  mean (±S.E.) recognition threshold: 7.66 ± 0.43 mM
254 Japanese subjects; female subjects
  mean recognition threshold: 6.91 ± 0.62 mM
254 Japanese subjects; homo- and heterozygotes containing TAS1R3-757C (n = 39)
  mean (±S.E.) recognition threshold: 8.43 ± 0.98 mM
254 Japanese subjects; homo- and heterozygotes containing TAS1R3-757C
  mean recognition threshold by Gaussian fit analysis: 8.60 ± 0.20 mM
254 Japanese subjects; male subjects
  mean recognition threshold: 8.27 ± 0.60 mM
[1]
  Ca2+ response of mock-transfected HEK cells: did not respond
